# Values quoted from earlier work, collected in patent US20170128362A1, “APPLICATION OF LARGE-DOSE GLYCERINUM IN FREEZE-THAWING TOLERABLE LIPID EMULSION” (Shengyang Pharmaceutical University, priority 2014, published 2017).
# Details: 0.005% sodium oleate
smiles,measurement,value
CCCCCCCC/C=C\CCCCCCCC(=O)[O-].[Na+] [sodium oleate],hemolysis,100%
